{
  "source": "patent US20190025285A1",
  "about": "“METHODS OF DETERMINING RELATIVE POTENCY OF GLATIRAMER ACETATE AND USE THEREOF IN PREPARING A BATCH OF GLATIRAMER ACETATE AS ACCEPTABLE FOR PHARMACEUTICAL USE” (InSight Biopharmaceutical Ltd., priority 2015, published 2019)",
  "key": {"[1]": {"system": "Experimental Autoimmune Encephalomyelitis", "conditions": "various animal species; cited from earlier work"}, "[2]": {"system": "multiple sclerosis", "conditions": "cited from earlier work"}, "[3]": {"system": "LNCs extracted from mice immunized with Poly-YAK (YB106)", "assay": "Ex-vivo potency assay: immunization with Poly-YAK (YB106), in-vitro stimulation of LNCs, IL-2 ELISA", "type": "cell-based, mouse", "conditions": "specificity samples as in-vitro stimulators", "from_the_text": "The present inventors developed an ex-vivo biological potency assay to determine the relative potency of GA based on effecting the first stimulus by immunizing mice in-vivo with Poly-YAK (also referred to as activation), and the second stimulus by in-vitro stimulation (also referred to as stimulation) with GA. The assay is composed of 6 major steps depicted in FIG. 1.\nBriefly, mice are immunized with a pre-determined amount of Poly-YAK (YB106), mixed 1:1 with CFA (step 1). Eight to ten days later, the mice are sacrificed and draining lymph nodes are harvested. Lymph node cells (LNCs) are extracted from the lymph nodes and counted (step 2). […] The Level of IL-2 secretion from the cells into the culture media is determined by a commercial IL-2 ELISA (step 4).\nIn order to determine the relative potency of a tested batch, IL-2 secretion by the LNCs incubated with the tested batch samples is compared to the IL-2 secretion by the LNCs incubated with RS samples (step 5). Parallelism of the RS and tested batch curves and potency of the tested batch are determined accordingly (step 6). […]\nLymph node cells (LNCs) extraction—The primary culture of LNCs was prepared 8 to 10 days following immunization. […] The cells were then collected in 10-20 ml RPMI or AIM-V complete medium and counted by hemocytometer using Erythrosine B (Sigma, cat no. E9259). […]"}},
  "data": [
    {"substance": "L-glutamic acid polymer with L-alanine, L-lysine and L-tyrosine, acetate (salt) [GA]", "values": [
      {"measurement": "suppression of EAE", "setting": "[1]", "result": "suppress Experimental Autoimmune Encephalomyelitis"},
      {"measurement": "total number of enhancing lesions as measured by MRI", "setting": "[2]; MS patients, 20 mg/day subcutaneous dose", "result": "reduce the total number of enhancing lesions"},
      {"measurement": "frequency of relapses", "setting": "[2]; relapsing-remitting MS clinical trials", "result": "reduce the frequency of relapses"}
    ]},
    {"substance": "MBP peptide (87-99): Myelin Basic Protein peptide 87-99 (BACHEM H-1964), negative control (SRPHLIRLFSRDA; UniProt P02686 87-99, looked up, fragment)", "values": [
      {"measurement": "IL-2 secretion response pattern in comparison to RS", "setting": "[3]", "result": "did not induce IL-2 secretion response"}
    ]}
  ]
}
